Experiment [1] has as its target T1, PI3K-beta (Homo sapiens, UniProt P42338).
T1 construct: made in house
Kind of experiment: HTRF in vitro profiling assay for PI3K inhibition (beta isoform). The following applies: PI3K-beta enzyme pIC50 range, 200 pM enzyme, 100 uM ATP, 10 uM PIP2, 150 mM NaCl, corrected pIC50, read-out: PI3K-b Enz Activity. In kind it is biochemical. The method in brief:
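PI3Kβ at 200 pM, preincubated 15 min with compound (11-point 3-fold series), then reacted 1 h at room temperature with 10 uM PIP2 and 100 uM ATP in buffer with 150 mM NaCl and 5 mM DTT. PIP3 formed measured by HTRF displacement of biotin-PIP3 from a GST-PH domain complex (665/620 nm).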
(In general: TR-FRET usually uses a lanthanide donor and a delayed reading to cut background.)

The test system of experiment [2] is pAKT(Ser473) in MDA-MB-468 cells. Kind of experiment: pAKT(Ser473) assay in MDA-MB-468 cells. In kind it is cell-based. The settings on record: Homo sapiens, 0.5 h, compound treatment 30 minutes, MSD ELISA phospho AKT(Ser473), given as ranges, read-out: Cell Activity—pAKT IC50 in MDA-MB-468.

pIC50: −log10 of the molar value. A value given as a limit tells only on which side of the number the result lay.

T1 sequence (P42338 whole entry): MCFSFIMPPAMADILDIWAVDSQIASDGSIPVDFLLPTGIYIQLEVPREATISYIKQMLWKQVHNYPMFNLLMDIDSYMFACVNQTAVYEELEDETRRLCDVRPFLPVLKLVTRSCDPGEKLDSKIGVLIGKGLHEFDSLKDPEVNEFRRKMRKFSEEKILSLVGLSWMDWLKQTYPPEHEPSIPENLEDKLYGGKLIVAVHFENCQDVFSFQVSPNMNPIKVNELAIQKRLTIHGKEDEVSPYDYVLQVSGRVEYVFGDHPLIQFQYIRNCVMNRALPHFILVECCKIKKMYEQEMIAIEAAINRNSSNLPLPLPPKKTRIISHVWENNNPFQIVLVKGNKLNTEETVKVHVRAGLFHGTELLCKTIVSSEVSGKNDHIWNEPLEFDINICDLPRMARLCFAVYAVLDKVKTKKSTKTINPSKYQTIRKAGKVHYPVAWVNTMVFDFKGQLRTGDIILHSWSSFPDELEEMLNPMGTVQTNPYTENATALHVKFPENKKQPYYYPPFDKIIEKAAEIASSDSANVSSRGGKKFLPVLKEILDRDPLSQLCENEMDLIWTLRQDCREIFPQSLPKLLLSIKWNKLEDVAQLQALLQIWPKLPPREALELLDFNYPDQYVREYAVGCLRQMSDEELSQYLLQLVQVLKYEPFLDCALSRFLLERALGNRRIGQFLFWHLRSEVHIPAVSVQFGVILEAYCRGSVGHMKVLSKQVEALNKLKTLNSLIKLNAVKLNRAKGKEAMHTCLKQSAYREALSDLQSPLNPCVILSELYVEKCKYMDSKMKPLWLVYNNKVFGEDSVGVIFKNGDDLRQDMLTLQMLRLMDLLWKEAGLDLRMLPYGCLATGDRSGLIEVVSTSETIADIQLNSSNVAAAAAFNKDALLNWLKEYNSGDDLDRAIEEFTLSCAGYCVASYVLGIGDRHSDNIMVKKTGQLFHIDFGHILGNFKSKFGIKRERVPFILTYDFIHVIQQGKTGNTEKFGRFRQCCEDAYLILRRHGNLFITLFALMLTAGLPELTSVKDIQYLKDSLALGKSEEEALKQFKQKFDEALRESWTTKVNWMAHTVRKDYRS
T1 sequence (P27986 whole entry partner): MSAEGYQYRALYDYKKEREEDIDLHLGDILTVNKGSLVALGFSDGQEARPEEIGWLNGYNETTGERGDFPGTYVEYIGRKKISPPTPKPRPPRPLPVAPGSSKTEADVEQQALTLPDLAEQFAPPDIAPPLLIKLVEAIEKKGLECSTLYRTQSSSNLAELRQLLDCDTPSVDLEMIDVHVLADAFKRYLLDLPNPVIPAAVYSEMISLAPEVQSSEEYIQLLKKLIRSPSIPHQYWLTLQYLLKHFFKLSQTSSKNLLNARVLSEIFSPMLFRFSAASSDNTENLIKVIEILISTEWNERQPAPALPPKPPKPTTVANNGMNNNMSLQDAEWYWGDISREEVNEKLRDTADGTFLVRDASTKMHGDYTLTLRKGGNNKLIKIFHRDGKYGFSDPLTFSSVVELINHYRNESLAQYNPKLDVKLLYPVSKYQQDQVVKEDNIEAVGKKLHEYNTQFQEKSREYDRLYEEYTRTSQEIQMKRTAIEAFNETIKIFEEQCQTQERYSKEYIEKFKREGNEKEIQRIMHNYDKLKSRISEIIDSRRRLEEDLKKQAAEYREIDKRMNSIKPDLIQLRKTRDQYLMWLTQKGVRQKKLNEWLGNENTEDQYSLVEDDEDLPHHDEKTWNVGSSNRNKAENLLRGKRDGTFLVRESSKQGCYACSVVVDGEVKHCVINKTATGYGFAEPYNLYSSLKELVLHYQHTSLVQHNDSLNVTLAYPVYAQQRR

For `Cc1c(Cc2cnn3c(-c4cn[nH]c4)cc(N4CCOCC4)nc23)cccc1C(F)(F)F` [Example 48, 4-(3-(2-methyl-3-(trifluoromethyl)benzyl)-7-(1H-pyrazol-4-yl)pyrazolo[1,5-a]pyrimidin-5-yl)morpholine], the pIC50 in experiment [1] is 5.90 to 6.90; in experiment [2], below 4.70.

As to `Cn1c(=O)c(Cc2cccc(Cl)c2Cl)c2nc(-c3ccncc3)cc(O)n21` [Example 50, 3-(2,3-dichlorobenzyl)-7-hydroxy-1-methyl-5-(pyridin-4-yl)pyrazolo[1,5-a]pyrimidin-2(1H)-one], the pIC50 is 7.00 to 7.90 in experiment [1] and 5.00 to 5.22 in experiment [2].

(Values after US9096605B2, “Pyrazolopyrimidine derivatives as PI3 kinase inhibitors” (GlaxoSmithKline LLC, priority 2011, dated 2015).)
